According to paper PMC5929447 (Oncotarget, 2018):
Several values for one entry are separate records, joined by “and”; a condition that tells them apart may be missing. Equal values may be shown once.

Experiments:
[1] = molecular target: MCL-1 (Homo sapiens, UniProt Q07820); assay: Fluorescence polarization (FP) with Fluorescein-PUMA, MCL-1; type: binding
[2] = molecular target: BCL-2 (Homo sapiens, UniProt P10415); assay: Isothermal titration calorimetry (ITC), BCL-2; conditions: binding to BCL-2
Procedure: (§1) The protein was dialyzed prior to use in 2 L of 25 mM HEPES, 150 mM NaCl, 5% glycerol (v/v), 0.5% MTG (v/v) at pH 7.4 for 3 hours at room temperature. The protein was dialyzed using a 3.5 K MWCO Slide-A-Lyzer™ cassette. The protein solution was recovered, spin-filtered through a […] frit. The filtered protein was quantified by UV absorbance at 280 nm using an extinction coefficient of 36440 M^-1cm^-1. 500 ml of dialysis buffer was retained (remainder used to rinse out SCHOT bottle) and degassed for a minimum of 30 mins under vacuum with constant stirring. […] The solutions were carefully matched to ensure same solvent and buffer conditions were present in both syringe and cell (this is to minimize heat of dilution effects). The final solution was the dialysis buffer plus 1% DMSO and 0.05% P20. The experiment was performed over 13 injections with stirring at 1000 rpm, gain setting low and at 25° C. Pure water was used in the reference cell. The first injection was 0.5 μl with a duration of 1 second with a gap of 150 seconds until the further 12 injections of 3.05 μl with a duration 6.1 seconds and a 240 second interval between injections. Data was analyzed using the vendor supplied software, PEAQ-ITC Analysis Software. The data model used was the single site model. The data shown is the average of 2 or 3 independent experiments.

[3] = molecular target: BCL-XL (Homo sapiens, UniProt Q07817); assay: Isothermal titration calorimetry (ITC), BCL-XL; type: binding; conditions: 25 °C; read-out: ITC_BCL-XL_KD
Procedure: as §1

[4] = tested on: H146 cell line; assay: CellTiter-Glo cell viability, H146; type: cell-based; conditions: Homo sapiens, NCI-H146; 72 h of treatment
Procedure: (§2) Cells were seeded into 96-well plates and treated at 8 points with 1:2 serial dilution of compounds. Cell viability was assessed and assayed for viability using CellTiter-Glo reagent (Promega) following the manufacturer's instructions. Plates were read using Tecan luminescence plate reader. Results were normalized to the viability of cells without compounds (control wells). The IC50 values were calculated using nonlinear regression algorithms in XCell software.

[5] = tested on: control RS4;11 cells (shRNA CT); assay: Viability of RS4;11 cells transduced with shRNA CT (control); type: cell-based; conditions: Homo sapiens, 72 h
[6] = molecular target: BCL-2/BAX complex (Homo sapiens, UniProt P10415); assay: Co-immunoprecipitation in BCL-2-overexpressing HeLa cells; type: cell-based; conditions: 2 h
[7] = tested on: BCL-2-dependent FL5.12 cells; assay: Apoptosis (annexin V/PI) in FL5.12 cells expressing BCL-2 upon IL-3 withdrawal; type: cell-based, murine; conditions: 24 h upon IL-3 withdrawal
[8] = tested on: Diffuse Large B-Cell Lymphoma cell lines; assay: CellTiter-Glo viability, DLBCL cell line panel; type: cell-based; conditions: 72 h, six out of eleven DLBCL cell lines tested
Procedure: as §2

[9] = tested on: Mantle Cell Lymphoma cell lines; assay: CellTiter-Glo viability, MCL cell line panel; type: cell-based; conditions: 72 h; two MCL cell lines out of five tested
Procedure: as §2

[10] = tested on: Toledo cells; assay: CellTiter-Glo viability, Toledo; type: cell-based; conditions: Homo sapiens, 72 h
Procedure: as §2

[11] = tested on: caspase-3 activity in RS4;11 tumor xenografts; assay: Caspase-3 activity in RS4;11 tumor xenografts; type: in vivo; conditions: 16 h post dosing, SCID mice
Procedure: Body weights were recorded and tumors were measured with digital calipers twice to three times a week. Tumor volume was calculated using the formula: length × width^2/2. Percent changes in body weights was calculated as (BWcurrent - BWinitial)/(BWinitial) × 100. Data is presented as percent body weight change from the day of treatment initiation. When tumors reached approximately 200 mm^3 for efficacy studies or 300 mm^3 for pharmacodynamic studies, mice were randomized. […] Mice were treated via oral gavage at 10 ml/kg with the doses and schedules described in the figure. For pharmacodynamic studies, blood and tumors were removed 16 h post dosing and immediately snap-frozen. Total proteins were extracted from the tumors and caspase-3 activity was assessed in triplicate using CaspACE® Assay System (Promega). Platelet cell counts were determined 16 hours post dosing using Coulter AcT diff (Beckman).

[12] = tested on: platelets; assay: Platelet counts in RS4;11-bearing mice; type: in vivo; conditions: 25 and 100 mg/kg single oral dose, 16 h post dosing
Procedure: When tumors reached approximately 200 mm^3 for efficacy studies or 300 mm^3 for pharmacodynamic studies, mice were randomized. […] Mice were treated via oral gavage at 10 ml/kg with the doses and schedules described in the figure.
For pharmacodynamic studies, blood and tumors were removed 16 h post dosing and immediately snap-frozen. Total proteins were extracted from the tumors and caspase-3 activity was assessed in triplicate using CaspACE® Assay System (Promega). Platelet cell counts were determined 16 hours post dosing using Coulter AcT diff (Beckman).

[13] = Body weight in Toledo-bearing mice; type: in vivo; conditions: doses up to 300 mg/kg, oral five times a week for 3 weeks
Procedure: For each experiment, female SCID/beige mice were implanted subcutaneously (right axillary region) with 3 × 10^6 Toledo or RS4;11 (1 × 10^6 cells for efficacy studies and 1 × 10^7 cells for pharmacodynamics studies) suspended in 1:1 mixture of cold DPBS and Matrigel™ in a total volume of 100 μl. Body weights were recorded and tumors were measured with digital calipers twice to three times a week. Tumor volume was calculated using the formula: length × width^2/2. Percent changes in body weights was calculated as (BWcurrent - BWinitial)/(BWinitial) × 100. Data is presented as percent body weight change from the day of treatment initiation.

[14] = molecular target: T1, BFL-1 (Homo sapiens, UniProt Q16548); assay: Fluorescence polarization (FP) with Fluorescein-PUMA, BFL-1
T1 sequence (Q16548 1-175): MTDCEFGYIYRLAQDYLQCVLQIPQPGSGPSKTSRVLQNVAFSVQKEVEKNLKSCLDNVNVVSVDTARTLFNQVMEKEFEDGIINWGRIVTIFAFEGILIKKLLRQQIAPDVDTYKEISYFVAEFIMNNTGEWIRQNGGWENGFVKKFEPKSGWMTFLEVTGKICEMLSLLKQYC
Procedure: Final concentrations of MCL-1, BFL-1, BCL-2 and BCL-XL proteins were 10, 10, 10 and 20 nM respectively. The assay plates were incubated for 2 hours at room temperature and the FP was measured on a Synergy 2 reader (Ex. 528 nm, Em. 640 nm, Cut-off 510 nm). The binding of increasing doses of compound was expressed as a percentage reduction in mP compared to the window established between ‘DMSO only’ and ‘total inhibition’ control (30 μM PUMA). […] The KI was subsequently calculated as previously described [42].

[15] = tested on: BCL-XL-dependent FL5.12 cells; assay: Apoptosis (annexin V/PI) in FL5.12 cells expressing BCL-XL upon IL-3 withdrawal; conditions: 24 h upon IL-3 withdrawal

MCL-1, sequence (Q07820 whole entry): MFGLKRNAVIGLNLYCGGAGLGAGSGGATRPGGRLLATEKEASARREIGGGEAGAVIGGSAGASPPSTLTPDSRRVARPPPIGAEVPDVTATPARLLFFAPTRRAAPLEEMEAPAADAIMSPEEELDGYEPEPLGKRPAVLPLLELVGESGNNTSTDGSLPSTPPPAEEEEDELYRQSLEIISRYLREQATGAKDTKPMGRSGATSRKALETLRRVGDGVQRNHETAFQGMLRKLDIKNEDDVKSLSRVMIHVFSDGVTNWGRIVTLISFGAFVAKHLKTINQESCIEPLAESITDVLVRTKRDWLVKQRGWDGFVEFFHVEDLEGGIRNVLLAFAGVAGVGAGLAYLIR
BCL-2, sequence (P10415 whole entry): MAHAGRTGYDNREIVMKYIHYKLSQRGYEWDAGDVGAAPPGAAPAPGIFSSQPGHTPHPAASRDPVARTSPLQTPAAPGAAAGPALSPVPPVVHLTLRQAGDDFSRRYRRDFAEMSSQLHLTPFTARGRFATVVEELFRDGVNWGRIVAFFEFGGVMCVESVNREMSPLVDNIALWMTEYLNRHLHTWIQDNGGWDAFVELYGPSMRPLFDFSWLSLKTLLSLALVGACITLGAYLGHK
BCL-XL, sequence (Q07817 whole entry): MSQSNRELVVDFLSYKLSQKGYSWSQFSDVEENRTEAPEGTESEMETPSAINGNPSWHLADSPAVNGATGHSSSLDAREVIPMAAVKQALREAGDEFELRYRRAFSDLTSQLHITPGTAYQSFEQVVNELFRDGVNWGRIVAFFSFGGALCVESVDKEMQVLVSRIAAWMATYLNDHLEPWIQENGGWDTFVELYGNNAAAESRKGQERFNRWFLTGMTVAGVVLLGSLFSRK
BCL-2/BAX complex, sequence (P10415 whole entry, one chain of several): as the sequence (P10415 whole entry) above

O=C(c1cc(-c2cc3c(cc2C(=O)N2Cc4ccccc4C[C@H]2CN2CCOCC2)OCO3)n2c1CCCC2)N(c1ccccc1)c1ccc(O)cc1 [S55746]
binding to MCL-1 ([1]; FP): No significant binding
FP_MCL-1, % of inhibition at the maximal tested concentration ([1]; at 30E-06 M): 4.3% and 4.5%
N (sites), stoichiometry [2]: 1.1 sites
∆H (enthalpy delta) [2]: –13.5 kcal/mol
Kd [3]: 186 nM
IC50 [4]: 1700 nM
IC50 [5]: 57 nM
effect on BCL-2/BAX complex in BCL-2-overexpressing HeLa cells [6]: affects BCL-2/BAX complex
apoptosis induction (PS+ cells) in BCL-2-dependent FL5.12 cells [7]: strongly induce apoptosis
IC50 [8]: < 1000 nM
IC50 [9]: < 1000 nM
IC50 [10]: 401 nM
caspase-3 activity in tumor, times higher than in vehicle-treated animals ([11]; 25 mg/kg single oral gavage): about 11 times
caspase-3 activity in tumor, times higher than in vehicle-treated animals ([11]; 100 mg/kg single oral gavage): ~28 times
platelet counts in vivo [12]: did not induce platelet loss
body weight compared to the vehicle control group [13]: did not significantly differ
binding to BFL-1 ([14]; FP): No significant binding
FP_BFL-1, % of inhibition at the maximal tested concentration ([14]; at 5E-06 M): 7.4%@5E-06
apoptosis induction (PS+ cells) in BCL-XL-dependent FL5.12 cells [15]: minor effect
